Data from patent US20240349726A1, “SUBSTITUTED 1,2,4-THIADIAZOLYL NICOTINAMIDES, SALTS OR N-OXIDES THEREOF AND THEIR USE AS HERBICIDALLY ACTIVE SUBSTANCES” (Bayer Aktiengesellschaft, priority 2021, published 2024).

Assays:
Format in all cases: in vivo
Stellaria media [1] = test: Herbicidal pre-emergence action, STEME; details: visual grading after ca. 3 weeks vs untreated controls
From the text: (§1) Seeds of mono- and dicotyledonous weed plants were sown in plastic pots (double sowings with one species of mono- and one species of dicotyledonous weed plants per pot), in sandy loam, and covered with soil. The compounds according to the invention, formulated in the form of wettable powders (WP) or as emulsifiable concentrates (EC), were applied to the surface of the covering soil as an aqueous suspension or as an emulsion, with the addition of 0.5% of an additive, at an application rate of 600 litres of water per hectare (converted). Following treatment, the pots were placed in a greenhouse and kept under optimum growth conditions for the test plants. The visual grading of the damage to the test plants is carried out after ca. 3 weeks in comparison to untreated controls (herbicidal effect in percent (%): 100% effect=plants have died, 0% effect=as control plants). Seeds of mono- and dicotyledonous weed plants were sown in plastic pots (double sowings with one species of mono- and one species of dicotyledonous weed plants per pot), in sandy loam, and covered with soil. The compounds according to the invention, formulated in the form of wettable powders (WP) or as emulsifiable concentrates (EC), were applied to the surface of the covering soil as an aqueous suspension or as an emulsion, with the addition of 0.5% of an additive, at an application rate of 600 litres of water per hectare (converted). Following treatment, the pots were placed in a greenhouse and kept under optimum growth conditions for the test plants. The visual grading of the damage to the test plants is carried out after ca. 3 weeks in comparison to untreated controls (herbicidal effect in percent (%): 100% effect=plants have died, 0% effect=as control plants).

Matricaria inodora [2] = test: Herbicidal pre-emergence action, MATIN; details: visual grading after ca. 3 weeks vs untreated controls
From the text: as §1

Poa annua [3] = test: Herbicidal pre-emergence action, POAAN; details: visual grading after ca. 3 weeks vs untreated controls
From the text: as §1

Veronica persica [4] = test: Herbicidal post-emergence action, VERPE; details: assessed visually after ca. 3 weeks vs untreated controls
From the text: (§2) Seeds of mono- and dicotyledonous weed plants were sown in plastic pots (double sowings with one species of mono- and one species of dicotyledonous weed plants per pot), in sandy loam, covered with soil and grown under controlled growth conditions. 2 to 3 weeks after sowing, the test plants were sprayed in the single-leaf stage. The compounds according to the invention, formulated in the form of wettable powders (WP) or as emulsifiable concentrates (EC), were sprayed onto the green plant parts as an aqueous suspension or as an emulsion, with the addition of 0.5% of an additive, at an application rate of 600 litres of water per hectare (converted). The test plants were placed in the greenhouse for ca. 3 weeks under optimum growth conditions, and then the effect of the preparations is assessed visually in comparison with untreated controls (herbicidal effect in percent (%): 100% effect=plants have died, 0% effect=as control plants). […]

Stellaria media [5] = test: Herbicidal post-emergence action, STEME; details: assessed visually after ca. 3 weeks vs untreated controls
From the text: as §2

Matricaria inodora [6] = test: Herbicidal post-emergence action, MATIN; details: assessed visually after ca. 3 weeks vs untreated controls
From the text: as §2

Alopecurus myosuroides = test: Herbicidal post-emergence action, ALOMY; details: assessed visually after ca. 3 weeks vs untreated controls
From the text: as §2

Abutilon theophrasti = test: Herbicidal post-emergence action, ABUTH; details: 1280 g/ha, assessed visually after ca. 3 weeks vs untreated controls
From the text: as §2

Veronica persica [7] = test: Herbicidal pre-emergence action, VERPE; details: visual grading after ca. 3 weeks vs untreated controls
From the text: as §1

Poa annua [8] = test: Herbicidal post-emergence action, POAAN; details: assessed visually after ca. 3 weeks vs untreated controls
From the text: as §2

Setaria viridis = test: Herbicidal post-emergence action, SETVI; details: 1280 g/ha, assessed visually after ca. 3 weeks vs untreated controls
From the text: Seeds of mono- and dicotyledonous weed plants were sown in plastic pots (double sowings with one species of mono- and one species of dicotyledonous weed plants per pot), in sandy loam, covered with soil and grown under controlled growth conditions. 2 to 3 weeks after sowing, the test plants were sprayed in the single-leaf stage. The compounds according to the invention, formulated in the form of wettable powders (WP) or as emulsifiable concentrates (EC), were sprayed onto the green plant parts as an aqueous suspension or as an emulsion, with the addition of 0.5% of an additive, at an application rate of 600 litres of water per hectare (converted). The test plants were placed in the greenhouse for ca. 3 weeks under optimum growth conditions, and then the effect of the preparations is assessed visually in comparison with untreated controls (herbicidal effect in percent (%): 100% effect=plants have died, 0% effect=as control plants).

Lolium rigidum [9] = test: Herbicidal pre-emergence action, LOLRI; details: visual grading after ca. 3 weeks vs untreated controls
From the text: as §1

Kochia scoparia [10] = test: Herbicidal pre-emergence action, KCHSC; details: 1280 g/ha, visual grading after ca. 3 weeks vs untreated controls
From the text: as §1

Lolium rigidum [11] = test: Herbicidal post-emergence action, LOLRI; details: assessed visually after ca. 3 weeks vs untreated controls
From the text: as §2

Amaranthus retroflexus [12] = test: Herbicidal post-emergence action, AMARE; details: 1280 g/ha, assessed visually after ca. 3 weeks vs untreated controls
From the text: as §2

Amaranthus retroflexus [13] = test: Herbicidal pre-emergence action, AMARE; details: 1280 g/ha, visual grading after ca. 3 weeks vs untreated controls
From the text: as §1

Kochia scoparia [14] = test: Herbicidal post-emergence action, KCHSC; details: assessed visually after ca. 3 weeks vs untreated controls
From the text: as §2

Digitaria sanguinalis = test: Herbicidal pre-emergence action, DIGSA; details: 1280 g/ha, visual grading after ca. 3 weeks vs untreated controls
From the text: Seeds of mono- and dicotyledonous weed plants were sown in plastic pots (double sowings with one species of mono- and one species of dicotyledonous weed plants per pot), in sandy loam, and covered with soil. The compounds according to the invention, formulated in the form of wettable powders (WP) or as emulsifiable concentrates (EC), were applied to the surface of the covering soil as an aqueous suspension or as an emulsion, with the addition of 0.5% of an additive, at an application rate of 600 litres of water per hectare (converted). Following treatment, the pots were placed in a greenhouse and kept under optimum growth conditions for the test plants. The visual grading of the damage to the test plants is carried out after ca. 3 weeks in comparison to untreated controls (herbicidal effect in percent (%): 100% effect=plants have died, 0% effect=as control plants).

## O=C(Nc1ncns1)c1c(C(F)(F)F)ccnc1F [Example I-002]
Stellaria media [1]; 320 g/ha
  herbicidal effect STEME: 100%
Stellaria media [1]; 1280 g/ha
  herbicidal effect STEME: 100%
Matricaria inodora [2]; 320 g/ha
  herbicidal effect MATIN: 90%
Matricaria inodora [2]; 1280 g/ha
  herbicidal effect MATIN: 100%
Poa annua [3]; 320 g/ha
  herbicidal effect POAAN: 100%
Poa annua [3]; 1280 g/ha
  herbicidal effect POAAN: 100%
Veronica persica [4]; 320 g/ha
  herbicidal effect VERPE: 100%
Veronica persica [4]; 1280 g/ha
  herbicidal effect VERPE: 100%
Stellaria media [5]; 320 g/ha
  herbicidal effect STEME: 100%
Stellaria media [5]; 1280 g/ha
  herbicidal effect STEME: 100%
Matricaria inodora [6]; 320 g/ha
  herbicidal effect MATIN: 90%
Matricaria inodora [6]; 1280 g/ha
  herbicidal effect MATIN: 100%
Alopecurus myosuroides; 320 g/ha
  herbicidal effect ALOMY: 100%
Alopecurus myosuroides; 1280 g/ha
  herbicidal effect ALOMY: 100%
Abutilon theophrasti
  herbicidal effect ABUTH: 90%
Veronica persica [7]; 320 g/ha
  herbicidal effect VERPE: 90%
Veronica persica [7]; 1280 g/ha
  herbicidal effect VERPE: 100%
Poa annua [8]; 320 g/ha
  herbicidal effect POAAN: 100%
Poa annua [8]; 1280 g/ha
  herbicidal effect POAAN: 100%
Setaria viridis
  herbicidal effect SETVI: 90%
Lolium rigidum [9]; 320 g/ha
  herbicidal effect LOLRI: 100%
Lolium rigidum [9]; 1280 g/ha
  herbicidal effect LOLRI: 100%
Kochia scoparia [10]
  herbicidal effect KCHSC: 90%
Lolium rigidum [11]; 320 g/ha
  herbicidal effect LOLRI: 90%
Lolium rigidum [11]; 1280 g/ha
  herbicidal effect LOLRI: 100%
Amaranthus retroflexus [12]
  herbicidal effect AMARE: 100%
Amaranthus retroflexus [13]
  herbicidal effect AMARE: 90%
Kochia scoparia [14]; 320 g/ha
  herbicidal effect KCHSC: 100%
Kochia scoparia [14]; 1280 g/ha
  herbicidal effect KCHSC: 100%

## O=C(Nc1ncns1)c1c(C(F)(F)F)ccnc1C1CC1 [Example I-005]
Stellaria media [1]; 320 g/ha
  herbicidal effect STEME: 100%
Stellaria media [1]; 1280 g/ha
  herbicidal effect STEME: 100%
Matricaria inodora [2]; 1280 g/ha
  herbicidal effect MATIN: 100%
Poa annua [3]; 320 g/ha
  herbicidal effect POAAN: 100%
Poa annua [3]; 1280 g/ha
  herbicidal effect POAAN: 100%
Veronica persica [4]; 320 g/ha
  herbicidal effect VERPE: 100%
Veronica persica [4]; 1280 g/ha
  herbicidal effect VERPE: 100%
Digitaria sanguinalis
  herbicidal effect DIGSA: 90%
Stellaria media [5]; 320 g/ha
  herbicidal effect STEME: 90%
Stellaria media [5]; 1280 g/ha
  herbicidal effect STEME: 90%
Poa annua [8]; 320 g/ha
  herbicidal effect POAAN: 100%
Poa annua [8]; 1280 g/ha
  herbicidal effect POAAN: 100%
Lolium rigidum [9]; 1280 g/ha
  herbicidal effect LOLRI: 100%
Kochia scoparia [10]
  herbicidal effect KCHSC: 100%
Amaranthus retroflexus [13]
  herbicidal effect AMARE: 100%
Kochia scoparia [14]; 1280 g/ha
  herbicidal effect KCHSC: 90%
